The values that follow come from paper PMC12251544 (2025).

The structures appear in SMILES notation.

The experiment concerns FAM-SpA1-1/SpA1-2 (T-2 toxin split aptamer) (DNA, aptamer) CAGCTCAGAAGCTTGATCCTG/TATATCAAGCATAGAGGTG
The following applies: 5 mM K+, 100 mM Na+, 1 mM Mg2+; 50 mM Tris-HCl, 1% methanol, pH 7.4, room temperature; sensor selectivity; concentration tested not stated.
On to `CCCC[C@@H](C)[C@@H](OC(=O)C[C@@H](CC(=O)O)C(=O)O)[C@H](C[C@@H](C)C[C@H](O)CCCC[C@@H](O)C[C@H](O)[C@H](C)N)OC(=O)C[C@@H](CC(=O)O)C(=O)O`, for which the binding entry is “no”.

For `C[C@@H]1Cc2c(Cl)cc(C(=O)N[C@@H](Cc3ccccc3)C(=O)O)c(O)c2C(=O)O1`, the binding entry is “no”.

Turning to `C[C@H]1CCCC(=O)CCC/C=C/c2cc(O)cc(O)c2C(=O)O1`, the binding entry is “no”.
